Test results taken from publication PMC4583475, “Receptor Polymorphism and Genomic Structure Interact to Shape Bitter Taste Perception” (PLoS Genetics, 2015).
Values belong to the compound of their own block, whether it stands above or below them.

Key:
[1] = system: bitter taste perception of 48 Caucasian subjects; experiment: Human psychophysical bitter taste tests (4-AFC recognition thresholds, gLMS intensity ratings); assay type: in vivo; details: for concentration perceived as strongly bitter, fold range across subjects: gLMS strong intensity
Procedure: All were pre-screened to avoid inclusion of individuals with health problems and overt taste pathologies; pregnant and breast-feeding women were also excluded. Each subject participated in the entire course of the study, which included one training session and nine experimental sessions. Visits consisted of DNA collection and psychophysical tests for genotyping and phenotypic analyses, respectively. General taste abilities were also assessed for the bitter, salty, sour, and sweet taste during the first session.
Experiments were conducted at the sensory analysis laboratory of the German Institute of Human Nutrition Potsdam-Rehbruecke, according to good practice guidelines. […] Perceived bitter taste intensities were rated on the general Labelled Magnitude Scale (gLMS; [72–74]). […] For each 4-AFC test, four coded samples containing 10 ml solution were presented simultaneously; one containing the bitter tastant diluted in mineral water (Evian; Danone, Paris, France) and three containing mineral water only. At each concentration, subjects were challenged to identify the different sample, specify whether the quoted sample tasted bitter, and rate the perceived bitter intensity. Tests were performed with nose clips and oral rinsing, with a 45 s pause between concentrations. Training sessions were first used to familiarize subjects with the experimental procedures, and secondly, to assess general taste abilities. Concentration series consisted of geometric sequences of […], with a 1.5 common ratio and the following concentration ranges: 3.5x10^-5–2.0x10^-3M, 6.9x10^-4–4.0x10^-2 M, 2.6x10^-4–1.5x10^-2 M, 6.9x10^-4–4.0x10^-2 M, for salicin, sodium chloride, citric acid, and sucrose used as reference tastants for bitter, salty, sour, and sweet taste, respectively. Following training, subjects tested each tastant in triplicate over nine sessions. Latin square designs extended for first-order carry-over effects were used to counterbalance presentation order of the test compounds over the test sessions, across subjects and for each test compound, as well as presentation order of the samples at each concentration across both repetitions and subjects. Sensory sessions were monitored and data automatically collected (Fizz; Biosystèmes, Couternon, France).
Detection and recognition probabilities of the bitter samples were analysed per repetition and subject. Relationships between probabilities (detection or recognition probabilities) and concentrations were fitted by a logistic regression model using the maximum-likelihood method. Threshold value and slope of the logistic curves were then obtained per repetition and subject, using a self-implemented toolbox (Matlab; The MathWorks Inc.). […] Where required, outliers were discarded according to the Peirce’s criterion. Perceived intensities, expressed in percentage of the scale length, were analysed similarly.

TAS2R30-H1 = experiment: Calcium imaging in HEK 293T Gα16gust44 cells transfected with TAS2R30-H1; assay type: cell-based, human
Description: (§1) Allelic responses to agonists were quantified using in vitro heterologous expression assays designed in previous studies of TAS2R receptor function, which successfully mimic responses in vivo with respect to both magnitude and concentration range [17, 23, 25, 26, 46]. DNA fragments containing TAS2R coding sequences were first amplified from genomic DNA by PCR using a proofreading polymerase (PfuUltra II Fusion HotStart DNA Polymerase; Agilent Technologies, Santa Clara, CA, USA) and cloned into a plasmid vector according to the manufacturer’s protocol (Zero Blunt TOPO PCR Cloning Kit; Life Technologies). A second PCR was performed using specific cloning primers to facilitate subcloning into the expression vector, which was then modified to add an N-terminal signal for cell surface localisation and a C-terminal epitope for immunocytochemical detection to the receptor sequence (Fast Link DNA Ligation Kit; Epicentre, Illumina Inc., Madison, WI, USA) (pcDNA5/FRT Mammalian Expression Vector; Life Technologies). Empty vector was used as a negative control.
(§2) Functional assays were carried out in HEK 293T cells stably expressing the G protein chimera Gα16gust44 and transiently transfected with TAS2R alleles subcloned into the expression vector [78]. Calcium imaging was performed using an automated fluorometric imaging plate reader by exposing transfected cells to test compounds dissolved in assay buffer or to assay buffer alone (FLIPR Tetra; Molecular Devices, LLC, Sunnyvale, CA, USA). Changes in cytosolic calcium levels were monitored by measuring fluorescence intensity of a calcium-sensitive dye previously added (Fluo-4 AM; Life Technologies). Six replicates were carried out for each bitter stimulus, on separate experimental days, with each replicate consisting of concentration series of each bitter tastant.
(§3) Prior to final analysis, fluorescence data from functional assays, expressed in relative fluorescence units (RFU), underwent three corrections. First, a correction calculated from baseline values was applied to compensate for well-to-well fluctuations. A second correction calculated from negative control values was applied to correct for receptor independent artefacts and signal drift. A third correction calculated from positive control values was applied to facilitate comparison of data obtained from different experimental days. Fluorescence ratios ((F-F0)/F0), obtained by subtracting the background fluorescence from fluorescence peak height and then dividing the difference by the background fluorescence, were then used for data analysis. Variance analyses were performed, followed by Bonferroni multiple comparisons tests (SPSS 20; IBM Corporation, Armonk, NY, USA). Threshold response values were then defined as the first concentration eliciting a significant activation of the receptor, with empty vector acting as a negative control. Finally, dose-response curves were fitted to the Hill equation by nonlinear regression in order to determine half maximal effective concentrations (EC50) and maximal amplitude (SigmaPlot; Systat Software Inc., Chicago, IL, USA).

TAS2R46-H1 = biological target: T1, TAS2R46-H1 (Homo sapiens, UniProt P59540); experiment: Calcium imaging in HEK 293T Gα16gust44 cells transfected with TAS2R46-H1; assay type: cell-based
T1 construct: N-terminal signal for cell surface localisation (N); expressed in transfected cells; host or cells: HEK 293T cells stably expressing the G protein chimera Gα16gust44
T1 sequence (P59540 1-309): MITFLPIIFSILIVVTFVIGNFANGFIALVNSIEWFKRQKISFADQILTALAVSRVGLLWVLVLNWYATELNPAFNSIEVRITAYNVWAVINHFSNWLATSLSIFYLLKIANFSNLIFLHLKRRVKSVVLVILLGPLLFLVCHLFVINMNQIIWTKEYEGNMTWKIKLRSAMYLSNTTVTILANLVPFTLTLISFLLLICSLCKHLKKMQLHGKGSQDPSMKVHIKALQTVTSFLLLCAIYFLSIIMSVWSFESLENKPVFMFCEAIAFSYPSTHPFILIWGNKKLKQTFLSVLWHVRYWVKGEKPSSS
Description: as §1, §2, §3

TAS2R46-H2 = biological target: T2, TAS2R46-H2 (Homo sapiens, UniProt P59540); experiment: Calcium imaging in HEK 293T Gα16gust44 cells transfected with TAS2R46-H2; assay type: cell-based; details: TAS2R46-H2, truncated variant (premature stop codon)
T2 construct: TAS2R46-H2, a truncated, six-transmembrane variant of the receptor; N-terminal signal for cell surface localisation (N); expressed in transfected cells; host or cells: HEK 293T cells stably expressing the G protein chimera Gα16gust44
T2 sequence (P59540 1-249 limits assumed): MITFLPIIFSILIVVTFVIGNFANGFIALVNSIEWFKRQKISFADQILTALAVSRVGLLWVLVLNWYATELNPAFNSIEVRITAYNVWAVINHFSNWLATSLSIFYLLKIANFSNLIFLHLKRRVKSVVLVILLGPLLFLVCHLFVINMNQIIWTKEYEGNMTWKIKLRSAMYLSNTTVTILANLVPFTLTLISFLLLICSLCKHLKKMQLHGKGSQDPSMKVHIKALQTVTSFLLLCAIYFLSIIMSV
Description: as §1, §2, §3

TAS2R46-H3 = experiment: Calcium imaging in HEK 293T Gα16gust44 cells transfected with TAS2R46-H3; assay type: cell-based, human
Description: as §1, §2, §3

[2] = system: TAS2R30, -31, -43, and -46; experiment: Calcium imaging functional assays, statements across TAS2R loci (variants not resolved); assay type: cell-based, human
Description: as §1
as §2, with “Six replicates were carried out for each bitter stimulus, on separate experimental days, with each replicate consisting of concentration series of each bitter tastant.” left out
Prior to final analysis, fluorescence data from functional assays, expressed in relative fluorescence units (RFU), underwent three corrections. First, a correction calculated from baseline values was applied to compensate for well-to-well fluctuations. A second correction calculated from negative control values was applied to correct for receptor independent artefacts and signal drift. […]

TAS2R31-H1 = experiment: Calcium imaging in HEK 293T Gα16gust44 cells transfected with TAS2R31-H1; assay type: cell-based, human
Description: (§4) Allelic responses to agonists were quantified using in vitro heterologous expression assays designed in previous studies of TAS2R receptor function, which successfully mimic responses in vivo with respect to both magnitude and concentration range [17, 23, 25, 26, 46]. DNA fragments containing TAS2R coding sequences were first amplified from genomic DNA by PCR using a proofreading polymerase (PfuUltra II Fusion HotStart DNA Polymerase; Agilent Technologies, Santa Clara, CA, USA) and cloned into a plasmid vector according to the manufacturer’s protocol (Zero Blunt TOPO PCR Cloning Kit; Life Technologies). […]
as §2, with “Six replicates were carried out for each bitter stimulus, on separate experimental days, with each replicate consisting of concentration series of each bitter tastant.” left out
(§5) Prior to final analysis, fluorescence data from functional assays, expressed in relative fluorescence units (RFU), underwent three corrections. […]

TAS2R31-H2 = experiment: Calcium imaging in HEK 293T Gα16gust44 cells transfected with TAS2R31-H2; assay type: cell-based, human
Description: as §4
as §2, with “Six replicates were carried out for each bitter stimulus, on separate experimental days, with each replicate consisting of concentration series of each bitter tastant.” left out
as §5

TAS2R31-H3 = experiment: Calcium imaging in HEK 293T Gα16gust44 cells transfected with TAS2R31-H3; assay type: cell-based, human
Description: as §4
as §2, with “Six replicates were carried out for each bitter stimulus, on separate experimental days, with each replicate consisting of concentration series of each bitter tastant.” left out
as §5

TAS2R31-H4 = experiment: Calcium imaging in HEK 293T Gα16gust44 cells transfected with TAS2R31-H4; assay type: cell-based, human
Description: as §4
as §2, with “Six replicates were carried out for each bitter stimulus, on separate experimental days, with each replicate consisting of concentration series of each bitter tastant.” left out
as §5

TAS2R30-H2 = experiment: Calcium imaging in HEK 293T Gα16gust44 cells transfected with TAS2R30-H2; assay type: cell-based, human
Description: as §1, §2, §3

TAS2R43-H1 = experiment: Calcium imaging in HEK 293T Gα16gust44 cells transfected with TAS2R43-H1; assay type: cell-based, human; details: first concentration eliciting significant receptor activation
Description: as §1, §2
as §3, with “Threshold response values were then defined as the first concentration eliciting a significant activation of the receptor, with empty vector acting as a negative control. Finally, dose-response curves were fitted to the Hill equation by nonlinear regression in order to determine half maximal effective concentrations (EC50) and maximal amplitude (SigmaPlot; Systat Software Inc., Chicago, IL, USA).” left out

TAS2R43-H2 = experiment: Calcium imaging in HEK 293T Gα16gust44 cells transfected with TAS2R43-H2; assay type: cell-based, human; details: first concentration eliciting significant receptor activation
Description: as §1, §2
as §3, with “Threshold response values were then defined as the first concentration eliciting a significant activation of the receptor, with empty vector acting as a negative control. Finally, dose-response curves were fitted to the Hill equation by nonlinear regression in order to determine half maximal effective concentrations (EC50) and maximal amplitude (SigmaPlot; Systat Software Inc., Chicago, IL, USA).” left out

[3] = system: every known TAS2R in humans; design: method as in PMID 20022913; details: complete TAS2R family; cited from earlier work
[4] = first concentration eliciting significant receptor activation

- receptor variant response (TAS2R46-H1): most sensitive
- receptor variant response (TAS2R46-H2): least sensitive
Compound: COC1=C[C@@H](C)[C@@H]2C[C@H]3OC(=O)C[C@H]4C(C)=C(OC)C(=O)[C@H]([C@@]2(C)C1=O)[C@@]34C [quassin]
- recognition threshold, fold range across subjects ([1]; 48 human subjects): 38 fold
- concentration perceived as strongly bitter, fold range across subjects [1]: 8 fold
- concentration perceived as weakly bitter, fold range across subjects ([1]; gLMS weak intensity): 26 fold
- receptor variant response (TAS2R30-H1): responding in ranges matching phenotypic recognition threshold
- receptor variant response (TAS2R46-H3): intermediate
- TAS2Rs activated in vitro [2]: only TAS2R30 and TAS2R46

Compound: C=C[C@H]1C[N@@]2CC[C@H]1C[C@H]2[C@H](O)c1ccnc2ccc(OC)cc12 [quinine]
- receptor variant response (TAS2R31-H1): intermediates
- receptor variant response (TAS2R31-H2): sensitive
- receptor variant response (TAS2R31-H3): insensitive
- receptor variant response (TAS2R31-H4): intermediates

- EC50 (TAS2R30-H1): 0.41 µM
- EC50 (TAS2R30-H2): 0.39 µM
- EC50 (TAS2R46-H1): 67 µM
- maximum amplitude (TAS2R46-H1): 0.57 ΔF/F
- threshold (TAS2R46-H1; [4]): 30 µM
- receptor variant response (TAS2R46-H2): not activated at any concentration
Compound: amarogentin
- bitter taste recognition threshold, mode of distribution ([1]; 48 human subjects): 40 nM
- concentration perceived as strongly bitter, fold range across subjects [1]: less than 4 fold
- concentration perceived as weakly bitter, fold range across subjects ([1]; gLMS weak intensity): 17 fold
- concentration perceived as weakly bitter, mode ([1]; gLMS weak intensity): 50 nM
- maximum amplitude (TAS2R30-H1): 0.50 ΔF/F
- threshold (TAS2R30-H1; [4]): 10 nM
- maximum amplitude (TAS2R30-H2): 0.12 ΔF/F
- threshold (TAS2R30-H2; [4]): 300 nM
- threshold (TAS2R43-H1): 300 µM
- threshold (TAS2R43-H2): 300 µM
- threshold (TAS2R46-H3; [4]): 100 µM
- activation concentration of TAS2R43 relative to TAS2R30 ([2]; fold higher than TAS2R30): 3000 fold
- TAS2Rs responsive in published receptor-agonist inventory [3]: TAS2R1, -4, -39, -43, -46, -30, and -50
